Structures are written as SMILES. Like-named read-outs stand apart in the source and are kept apart here.

The test system of one series is SNUC2B. The series can be described thus: 2D combinational test (SRB growth inhibition, six days). It is filed as cell-based, human. The text has this: (§1) OD values were normalized to control. […] Data shown are results of three independent experiments.
A further series relates to SW480. Described as above. Type of series: cell-based, human.
From the text: as §1

In the next series the test system is A549. The series is described as above. Type of series: cell-based, human.
From the text: as §1

A further series concerns HCT116. The series is described as above. Type of series: cell-based, human.
From the text: as §1

Another series deals with SW1990. The series is described as above. The following applies: for Relative cell viability (MEAN): SW1990; for viability at 0.1 µM / viability at 0.5 µM / viability at 1 µM: Homo sapiens, SW1990, SW1990, read-out: Relative cell viability (MEAN). Type of series: cell-based, human.
From the text: as §1

Series [1] deals with SW1573. The description is as above.
Procedure: H358, SW1573, H1792, MIAPACA2, SW1990, SNUC2B, SW480, A549 and HCT116 were purchased from ATCC, while SW48 KRAS G12C colorectal cell line and H838 KRAS G12D lung cell line was bought from Horizon Discovery Ltd. Most of the cell lines were heterozygous for mutant KRAS, as in human cases used to occur, but we also used cell lines with homozygous mutant KRAS.
Cells were cultured in DMEM (Lonza, Switzerland; with 4500 mg/dm3 glucose, pyruvate and L-glutamine) supplemented with 10% fetal calf serum (EuroClone) and 1% penicillin-streptomycin-amphotericin (Lonza) in tissue culture flasks in a humidified 5% CO2 atmosphere at 37° C.
For in vitro experiments drugs were dissolved in DMSO in 10 mM stock concentration and stored at −80° C.
Cells that reached 70-80% confluency were trypsinized and counted using Luna II Automated Cell Counter. Cells were plated in 5000-10000 cells/well density (depending on the growth rate of the given cell line) on a 24 well plate. Next day the medium was replaced to fresh medium supplemented with the inhibitors. After 6 days, the wells were washed with DPBS (Lonza) and the cells were fixed by 10% trichloroacetic acid and stained with Sulphorodamine-B (SRB) (Sigma) dye for 15 minutes. Plates then were repeatedly washed with 1% acetic acid to remove excess dye. Protein-bound SRB was then dissolved in 10 mM Tris buffer (pH=7,4) and OD was measured at 570 nm using a microplate reader (EL800, BioTec Instruments, Winooski, VT). OD values were normalized to control. Transformed data then were used to calculate combinational index (CI) values using Compusyn software as described in https://www.combosyn.com/index.html. Data shown are results of three independent experiments.
The next series has as its system H358. The series is described as above. The following applies: concentration range of 1-20 μM, data not shown.
A further series has as its system H838 KRAS G12D. The description is as above. Type of series: cell-based, human.
From the text: as §1

The test system of the next series is PF906. The description is as above. Type of series: cell-based, human.
From the text: as §1

Series [2] has as its system SW1573. As to the kind of experiment: siRNA knockdown experiment (SRB, IC50). Particulars: Homo sapiens, SW1573, 144 h, 6-day-long treatment. Type of series: cell-based, human. As to the method: Cells were plated in 2500 and 7500 cells/well density (for non-targeting siRNA and HRAS siRNA treatment, respectively) on a 48we11 plate supplemented with pre-mixed Lipofectamine RNAIMAX Reagent (Thermo Fisher) and OptiMEM (Thermo Fisher) containing 2.5 pmol/well non-targeting or HRAS siRNA according to the manufacturer's instruction (reverse transfection protocol). […] On the 3rd day of the treatment, cells were supplemented with fresh pre-mixed 2.5 pmol/well siRNA diluted in Lipofectamine RNAiMAX Reagent and Optimem according to the manufacturer's instruction. […] OD values were normalized to control, and IC50 values were calculated from transformed data using GraphPad PRISM 5 software.

For the next series, the system named is SW1573 xenografts. The series can be described thus: In vivo tumor growth of subcutaneous xenografts. Set-up: species or system female SCID mice. Particulars: AMG510 25 mg/kg i.p. and/or tipifarnib 40 mg/kg i.p., (day 1 = 1). As to the method: (§2) H358 and SW1573 human lung adenocarcinoma cells (5×10^6 and 1×10^6, respectively) were subcutaneously injected in female SCID mice. Cells were injected in 200 μl DMEM:Matrigel mixture (ratio 1:1) based on preliminary experiments. When tumor reached approximately 100 mm^3 (H358 7 days, SW1573 26 days after injection), animals were randomized and treated intraperitoneally daily except for weekends. Drugs were dissolved in 60% DPBS, 34% PEG300, 5% DMSO and 1% Tween80. […] Controls received vehicle. Doses were determined based on previous literature, roughly using half of the used per os doses. The subcutaneous tumors were measured with a caliper and tumor volumes were calculated with the formula […] and expressed in mm^3. H358 experiment was terminated after 18 days and SW1573 after 25 days treatment. Tumors were measured upon harvest, then fixed with 4% PFA for histological analyses.
(§3) Animals were the properties of the Department of Experimental Pharmacology, National Institute of Oncology, H-1122, Budapest, Hungary. All experiments were carried out in accordance with the Guidelines for Animal Experiments and were approved for the Department of Experimental Pharmacology in the National Institute of Oncology, Budapest, Hungary.

For a further series, the system named is H358 xenografts. The series can be described thus: In vivo tumor growth of subcutaneous xenografts. Details: species or system female SCID mice. Particulars: AMG510 5 mg/kg i.p. and/or tipifarnib 40 mg/kg i.p., (day 1 = 1). As to the method:
as §2, §3

Setting [3] is: 0 nM tipifarnib + 25 nM MRTX1133.
Setting [4] is: 0 nM tipifarnib + 125 nM MRTX1133.
Setting [5] is: 0 nM tipifarnib + 625 nM MRTX1133.
The mark [6] stands for this setting: group mean, in g (unit assumed).

`Cn1cnc(Cn2ccc3ccc(CNCc4[nH]c5ccccc5c4[C@H]4NC(=O)c5ccc(O)cc54)cc32)c1` [BI2852]: the “Relative cell viability (MEAN)” value in the series with SNUC2B (0 nM tipifarnib + 10 μM BI2852) came out at 0.8372; in the series with SNUC2B (0 nM tipifarnib + 20 μM BI2852), 0.7477; in the series with SNUC2B (0 nM tipifarnib + 30 μM BI2852), 0.664; in the series on SW480 (0 nM lonafarnib + 15 μM BI2852), 0.8064; in the series on SW480 (0 nM lonafarnib + 20 μM BI2852), 0.6712; in the series on SW480 (0 nM lonafarnib + 30 μM BI2852) it was 0.3888. The “Relative cell viability (MEAN)” value in the series with SW480 (0 nM tipifarnib + 5 μM BI2852) is on record as 0.9312; with SW480 (0 nM tipifarnib + 10 μM BI2852), 0.7461; with SW480 (0 nM tipifarnib + 15 μM BI2852), 0.5371; in the series with A549 (0 nM TIPIFARNIB + 20 μM BI2852) it was 0.9541; with A549 (0 nM TIPIFARNIB + 30 μM BI2852), 0.8484; with A549 (0 nM TIPIFARNIB + 40 μM BI2852), 0.7576. Also, the “Relative cell viability (MEAN)” value in the series with HCT116 (0 nM TIPIFARNIB + 10 μM BI2852) was 0.846; with HCT116 (0 nM TIPIFARNIB + 20 μM BI2852) it was 0.7086; in the series on HCT116 (0 nM TIPIFARNIB + 30 μM BI2852), 0.5907; in the series with SW1990 (0 nM tipifarnib + 10 μM BI2852), 0.9287; in the series with SW1990 (0 nM tipifarnib + 20 μM BI2852), 0.8554; with SW1990 (0 nM tipifarnib + 30 μM BI2852) it was 0.8187.

`Cc1nc[nH]c1CN1CCN(C(=O)N[C@@H](CC(C)C)C(=O)O)[C@@H](Cc2ccccc2)C1=O` [GGTI-2418]: the “Effect on tumor cell proliferation (in words)” value in the series with SW1573 [1] (SW1573, concentration range of 1-20 μM, data not shown) is given as “ineffective”; in the series with H358, “ineffective”.

Turning to `C#Cc1c(F)ccc2cc(O)cc(-c3ncc4c(N5CC6CCC(C5)N6)nc(OC[C@@]56CCCN5C[C@H](F)C6)nc4c3F)c12` [MRTX1133], the “Relative cell viability (MEAN)” value with H838 KRAS G12D (setting [3]) was determined as 0.8997; with H838 KRAS G12D (setting [4]), 0.7955; in the series with H838 KRAS G12D (setting [5]) it was 0.6909; in the series on SNUC2B (0 nM tipifarnib + 50 nM MRTX1133) it was 0.739; in the series with SNUC2B (0 nM tipifarnib + 100 nM MRTX1133), 0.7023; in the series on SNUC2B (0 nM tipifarnib + 500 nM MRTX1133) it was 0.6567. Further, the “Relative cell viability (MEAN)” value with PF906 (setting [3]) was 0.716; with PF906 (setting [4]) it was 0.625; in the series with PF906 (setting [5]) it was 0.574; in the series with SW1990 (0 nM lonafarnib + 2.5 nM MRTX1133) it was 0.848; in the series on SW1990 (0 nM lonafarnib + 5 nM MRTX1133), 0.7005; in the series on SW1990 (0 nM lonafarnib + 10 nM MRTX1133), 0.5543. For the same compound, the “Relative cell viability (MEAN)” value was 0.7355 with SW1990 (0 nM tipifarnib + 2.5 nM MRTX1133), 0.5922 in the series on SW1990 (0 nM tipifarnib + 5 nM MRTX1133) and 0.4549 with SW1990 (0 nM tipifarnib + 10 nM MRTX1133).

For the compound `Cn1cncc1[C@@](N)(c1ccc(Cl)cc1)c1ccc2c(c1)c(-c1cccc(Cl)c1)cc(=O)n2C` [tipifarnib], the results for the IC50 in the series on SW1573 [2] (Cont (non-targeting) siRNA) and in the series on SW1573 [2] (HRAS siRNA) were 4.56 nM and 10.5 nM, respectively. The viability at 0.025 µM in the series with SW1573 [1] (Homo sapiens, SW1573, read-out: Relative cell viability (MEAN), SW1573, 25 nM tipifarnib + 0 μM BI2852) came out at 41.4%. Besides, the viability at 0.05 µM in the series on SW1573 [1] (Homo sapiens, SW1573, read-out: Relative cell viability (MEAN), SW1573, 50 nM tipifarnib + 0 μM BI2852) was determined as 35.4%. Further, the viability at 0.1 µM in the series with SW1573 [1] (Homo sapiens, SW1573, read-out: Relative cell viability (MEAN), SW1573, 100 nM tipifarnib + 0 μM BI2852) worked out at 29.2%; in the series with SW1990 (100 nM tipifarnib + 0 μM BI2852), 75.6%; in the series with SW1990 (100 nM tipifarnib + 0 nM MRTX1133), 80.2%. Also, the “Weights of the tumors at the end of the experiment” value with SW1573 xenografts (animal 1, in g (unit assumed)) was 0.5323; in the series on SW1573 xenografts (animal 2, in g (unit assumed)), 0.2277; in the series on SW1573 xenografts (animal 3, in g (unit assumed)) it was 0.3143; in the series with SW1573 xenografts (animal 5, in g (unit assumed)), 0.2239; in the series with SW1573 xenografts (animal 6, in g (unit assumed)) it was 0.2604; in the series with SW1573 xenografts (animal 7, in g (unit assumed)) it was 1.2243. Besides, the “Weights of the tumors at the end of the experiment” value in the series on H358 xenografts (animal 1, in g (unit assumed)) turned out to be 0.182; in the series on H358 xenografts (animal 2, in g (unit assumed)) it was 1.599; with H358 xenografts (animal 3, in g (unit assumed)), 1.023; with H358 xenografts (animal 4, in g (unit assumed)), 0.223; in the series with H358 xenografts (animal 5, in g (unit assumed)) it was 0.225; in the series on H358 xenografts (animal 6, in g (unit assumed)), 0.205. Moreover, in the series on H358 xenografts (animal 7, in g (unit assumed)), the “Weights of the tumors at the end of the experiment” value stood at 0.239. Moreover, the “Weights of the tumors at the end of the experiment, MEAN” value turned out to be 0.4638 in the series on SW1573 xenografts (setting [6]) and 0.528 in the series on H358 xenografts (setting [6]). Besides, the viability at 0.5 µM with SW1990 (500 nM tipifarnib + 0 μM BI2852) came out at 67%; in the series with SW1990 (500 nM tipifarnib + 0 nM MRTX1133), 70.3%. Further, the viability at 1 µM in the series with SW1990 (1000 nM tipifarnib + 0 μM BI2852) was found to be 55%; in the series with SW1990 (1000 nM tipifarnib + 0 nM MRTX1133) it was 63.4%.

For orientation: IC50 means the concentration at which inhibition is half-maximal. A lower IC50 goes with inhibition by little substance. What is called viability is the share of living cells, or the viability signal relative to a control.

The record behind these values is patent US20240058321A1, “FARNESYL-TRANSFERASE INHIBITORS AND KRAS INHIBITORS FOR TREATING KRAS MUTANT CANCERS” (SEMMELWEIS EGYETEM, priority 2021, published 2024).
